Experimental findings from patent US9119848B2, “Morphinan derivatives for the treatment of drug overdose” (Alkermes Pharma Ireland Limited, priority 2009, dated 2015) are described below.

Structures are written as SMILES.

Data set [1] has as its system opioid dependent, opioid experienced subject. Put plainly: Compound-1 after REMI challenge in an opioid dependent, opioid experienced subject. Particulars: 10 mg on Day 2, one opioid dependent subject.
Data set [2] can be described thus: Elimination of Compound-1 in study subjects.

`NC(=O)c1ccc2c(c1O)[C@]13CCN(CC4CC4)[C@H](C2)[C@]1(O)CCC(=O)C3` [Compound-1]: the “time to severe drug withdrawal post-dosing” value in data set [1] turned out to be 2 min. The “fraction of Compound-1 eliminated” value in data set [2] (by 4 days post-dose) is on record as “more than 99%”. Also, in data set [2] (human, in vivo, 20 mg), the half-life (usually the time in which the quantity being followed falls by half) is 7 h.
